Consider seven molecules from PMC11449324, “Functional comparison of human and murine equilibrative nucleobase transporter 1” (PLOS ONE, 2024).

In one data set the test system is HEK293-mslc43a3 cells. Briefly: MTT cell viability assay, HEK293-mslc43a3. The data set is classed as cell-based, human. To be noted: for EC50: Homo sapiens, first-phase EC50 where biphasic. Here is the method:
(§1) Transfected-HEK293, MOLT-4, and L1210 cells were seeded into 24-well plates at a density of 1.1x10^5 cells per well in complete culture medium. […] Medium containing no cells was used to determine spontaneous MTT reduction (background). In transfected-HEK293 cells, media was removed via a vacuum-powered aspirator and replaced with 150 μL of Dulbecco’s phosphate buffered saline (DPBS—137 mM NaCl, 2.7 mM KCl, 6.3 mM Na2HPO4, 1.5 mM KH2PO4, 0.5 mM MgCl2, 0.9 mM CaCl2, pH 7.4) containing MTT (1 mg/mL) for 90 minutes at 37°C. In MOLT-4 and L1210, cell suspension was transferred to 1.5 mL microcentrifuge tubes and centrifuged for 10 minutes at 3000 rcf. Following centrifugation, media was removed via gentle pipetting and replaced with 150 μL of DPBS containing MTT (1 mg/mL) for 90 minutes at 37°C. Microcentrifuge tubes were centrifuged again for 15 minutes at 23,500 rcf, and then DPBS containing MTT was removed via a vacuum-powered aspirator. The resultant formazan crystals were solubilized in 500 μL of DMSO and transferred to a 96-well plate in 200 μL duplicates. Absorbance was measured at 570 nm, in a SpectraMax® i3x Multi-Mode Detection Platform (Molecular Devices, San Jose, CA). After background subtraction, % cell viability was calculated as the ratio of absorbance in the presence of test compound to that measured with vehicle alone (X 100).
(Tetrazolium assays rely on reduction of a dye to a coloured formazan, in cell work by metabolically active cells.)

Another data set concerns HEK293-EV cells. Briefly: MTT cell viability assay, HEK293-EV. The data set is classed as cell-based, human. To be noted: 48 h; for EC50: Homo sapiens, first-phase EC50 where biphasic. Here is the method: as §1
In another data set the test system is ENBT1. To be noted: previous findings ref 14; cited from earlier work.
For another data set, the system named is HEK293-hSLC43A3 cells. Briefly: MTT cell viability assay, HEK293-hSLC43A3. The data set is classed as cell-based, human. The note with it: for EC50: Homo sapiens, first-phase EC50 where biphasic. Here is the method: as §1
Substrate in data set [1]: Nc1ncnc2nc[nH]c12
Briefly: Radiolabelled substrate uptake (oil-stop, 2 s) in HEK293-hSLC43A3 cells. To be noted: other: HEK293-hSLC43A3 minus HEK293-EV, 2 seconds, room temperature, 10 μM dipyridamole; pH 7.4. The data set is classed as cell-based, human. Here is the method: (§2) Harvested cells were suspended in nominally sodium-free N-methyl-D-glucamine (NMG) buffer (140 mM NMG, 5 mM KCl, 4.2 mM KHCO3, 0.36 mM K2HPO4, 0.44 mM KH2PO4, 0.5 mM MgCl2, 1.3 mM CaCl2, 10 mM HEPES, pH 7.4), to minimize potential contribution of sodium-dependent concentrative nucleoside transporter-mediated uptake. Additionally, cells were incubated for 15 minutes at room temperature with 10 μM dipyridamole (DY), an equilibrative nucleoside transporter (ENT) inhibitor, to block equilibrative nucleoside transporter–mediated uptake. The substrate uptake assay was initiated by adding 250 μL cell suspension to 250 μL [^3H] labeled substrate, layered over 21:4 silicone:mineral oil (200 μL) in 1.5 mL microcentrifuge tubes (conducted at room temperature). The uptake reaction was terminated after 2 seconds by centrifugation of the cells through the oil layer at ~10,000 g. […] The resulting cell pellet was digested in 250 μL 1 M NaOH overnight (~16 hours), with 220 μL aliquots of digested cells assessed for radioactive content using standard liquid scintillation counting techniques in a Beckman Coulter LS6500 scintillation system (Brea, CA).
(§3) In transfected-HEK293 cell lines, total uptake was defined as uptake of radiolabeled substrate in cells overexpressing recombinant hENBT1 or mENBT1. […] ENBT1-mediated uptake was calculated as total uptake minus the non-mediated uptake. […]

Substrate in data set [2]: Sc1ncnc2nc[nH]c12
Briefly: cells, lysate or membranes. To be noted: pH 7.4.

Substrate in data set [3]: Nc1ncnc2nc[nH]c12
Put plainly: Radiolabelled substrate uptake (oil-stop, 2 s) in HEK293-mslc43a3 cells. To be noted: other: HEK293-mslc43a3 minus HEK293-EV, 2 seconds, room temperature, 10 μM dipyridamole; pH 7.4. The data set is classed as cell-based, mouse. Here is the method: as §2, §3

[4] abbreviates: other: HEK293-hSLC43A3 minus HEK293-EV, 2 seconds, room temperature, 10 μM dipyridamole.
The mark [5] stands for this setting: other: HEK293-mslc43a3 minus HEK293-EV, 2 seconds, room temperature, 10 μM dipyridamole.

Usually EC50 stands for the concentration needed to bring the measured effect to its halfway point. Regarding `CSc1ncnc2nc[nH]c12` [6-MeMP, 6-Methylmercaptopurine], the concentration giving a half-maximal response (EC50) in the data set on HEK293-mslc43a3 cells (HEK293-mslc43a3, 48 h, MTT) was determined as 42 ± 6 µM; with HEK293-EV cells, 45 ± 7 µM; in the data set with HEK293-hSLC43A3 cells (HEK293-hSLC43A3, 48 h, MTT) it was 79 ± 2 µM. The “effect on 6-MP uptake by ENBT1” value with ENBT1 was “inhibited”.
For the molecule `Nc1nc2nc[nH]c2c(=S)[nH]1` [6-TG, 6-thioguanine], the “shift in EC50 (increased sensitivity) relative to HEK293-EV cells” value in the data set with HEK293-mslc43a3 cells (HEK293-mslc43a3 vs HEK293-EV) and in the data set with HEK293-hSLC43A3 cells (HEK293-hSLC43A3 vs HEK293-EV) was 5 fold in each case. In addition, the 50% effective concentration (EC50) in the data set with HEK293-mslc43a3 cells (HEK293-mslc43a3, 48 h, MTT) worked out at 3.4 ± 1.1 µM; with HEK293-EV cells, 16 ± 4.3 µM; with HEK293-hSLC43A3 cells (HEK293-hSLC43A3, 48 h, MTT) it was 3.4 ± 0.9 µM. Besides, the “effect on 6-MP uptake by ENBT1” value in the data set on ENBT1 was “competitively inhibits”.
Consider `O=c1[nH]c(=S)c2[nH]c(=O)[nH]c2[nH]1` [6-TU, 6-Thiouric acid], for which the “effect on cell viability” value was “minimal effect” with HEK293-mslc43a3 cells (HEK293-mslc43a3, 48 h, MTT); “minimal effect” in the data set with HEK293-EV cells; “minimal effect” in the data set on HEK293-hSLC43A3 cells (HEK293-hSLC43A3, 48 h, MTT).

B1: hENBT1 (SLC43A3-encoded human ENBT1) (Homo sapiens) (protein)
chain: MAGQGLPLHVATLLTGLLECLGFAGVLFGWPSLVFVFKNEDYFKDLCGPDAGPIGNATGQADCKAQDERFSLIFTLGSFMNNFMTFPTGYIFDRFKTTVARLIAIFFYTTATLIIAFTSAGSAVLLFLAMPMLTIGGILFLITNLQIGNLFGQHRSTIITLYNGAFDSSSAVFLIIKLLYEKGISLRASFIFISVCSTWHVARTFLLMPRGHIPYPLPPNYSYGLCPGNGTTKEEKETAEHENRELQSKEFLSAKEETPGAGQKQELRSFWSYAFSRRFAWHLVWLSVIQLWHYLFIGTLNSLLTNMAGGDMARVSTYTNAFAFTQFGVLCAPWNGLLMDRLKQKYQKEARKTGSSTLAVALCSTVPSLALTSLLCLGFALCASVPILPLQYLTFILQVISRSFLYGSNAAFLTLAFPSEHFGKLFGLVMALSAVVSLLQFPIFTLIKGSLQNDPFYVNVMFMLAILLTFFHPFLVYRECRTWKESPSAIA
notes: Oligonucleotides corresponding to the coding region of SLC43A3 (NM_001278201) or slc43a3 (NM_021398); expressed in transfected cells; HEK293-hSLC43A3
As a reminder, the Km is the substrate concentration at which the rate is half of its maximum. Usually Vmax stands for the top rate of the reaction or transport when substrate is in excess. Turning to B1, in data set [1], the Km worked out at 93 ± 24 µM and the maximum rate (Vmax) came out at 56 ± 6 pmol/µL/s. In data set [2] (setting [4]), the Michaelis constant (Km) was 269 ± 67 µM and the Vmax was 121 ± 16 pmol/µL/s.

B2: endogenous ENBT1 expressed in MOLT-4 cells (Homo sapiens) (protein)
chain: MAGQGLPLHVATLLTGLLECLGFAGVLFGWPSLVFVFKNEDYFKDLCGPDAGPIGNATGQADCKAQDERFSLIFTLGSFMNNFMTFPTGYIFDRFKTTVARLIAIFFYTTATLIIAFTSAGSAVLLFLAMPMLTIGGILFLITNLQIGNLFGQHRSTIITLYNGAFDSSSAVFLIIKLLYEKGISLRASFIFISVCSTWHVARTFLLMPRGHIPYPLPPNYSYGLCPGNGTTKEEKETAEHENRELQSKEFLSAKEETPGAGQKQELRSFWSYAFSRRFAWHLVWLSVIQLWHYLFIGTLNSLLTNMAGGDMARVSTYTNAFAFTQFGVLCAPWNGLLMDRLKQKYQKEARKTGSSTLAVALCSTVPSLALTSLLCLGFALCASVPILPLQYLTFILQVISRSFLYGSNAAFLTLAFPSEHFGKLFGLVMALSAVVSLLQFPIFTLIKGSLQNDPFYVNVMFMLAILLTFFHPFLVYRECRTWKESPSAIA
Consider B2, for which, in data set [2] (other: MOLT-4, 2 seconds), the Km stood at 115 ± 68 µM.

B3: mENBT1 (slc43a3-encoded mouse ENBT1) (Mus musculus) (protein)
chain: MASKGLPLYLATLLTGLLECIGFAGVLFGWTSLLFVFKAENYFSEPCEQDCLLQSNVTGPSDLKAQDEKFSLIFTLASFMNNFMTFPTGYIFDRFKTTVARLIAIFFYTCATIIIAFTSANTAMLLFLAMPMLAVGGILFLITNLQIGNLFGKHRSTIITLYNGAFDSSSAVFLVIKLLYEQGISLRSSFIFMSVCSVWHIARTFLLMPKGHIPYPLPPNYSYGLCSRFGASKKENKAAEHETKELRSKECLPPKEENSGPEQQQQQEQQQQQQQQQEQHEQHSFRRCALSRRFILHVVWLSIIQLWHYLFIGTLNSLLTKLSGGDKVEVSAYTNAFAITQFFGVLCAPWNGLLMDRLKQKYQKAAKRTGSSSEAVALCSMVPSLALTSLLSLGFALCASIPVMQLQYATFILQVVSRSFLYGCNAAFLTLAFPSEHFGKLFGLVMALSAIVSLLQFPLFKVSPESNAVYVSMGLAIFLTLVHPFLVYRECRAEKTKSSVDA
notes: Oligonucleotides corresponding to the coding region of SLC43A3 (NM_001278201) or slc43a3 (NM_021398); expressed in transfected cells; HEK293-mslc43a3
As to B3, in data set [3], the Km amounted to 86 ± 22 µM and the Vmax was determined as 62 ± 6 pmol/µL/s. Moreover, in data set [2] (setting [5]), the Michaelis constant (Km) amounted to 253 ± 39 µM and the Vmax was found to be 144 ± 12 pmol/µL/s.

B4: endogenous ENBT1 expressed in L1210 cells (Mus musculus) (protein)
chain: MASKGLPLYLATLLTGLLECIGFAGVLFGWTSLLFVFKAENYFSEPCEQDCLLQSNVTGPSDLKAQDEKFSLIFTLASFMNNFMTFPTGYIFDRFKTTVARLIAIFFYTCATIIIAFTSANTAMLLFLAMPMLAVGGILFLITNLQIGNLFGKHRSTIITLYNGAFDSSSAVFLVIKLLYEQGISLRSSFIFMSVCSVWHIARTFLLMPKGHIPYPLPPNYSYGLCSRFGASKKENKAAEHETKELRSKECLPPKEENSGPEQQQQQEQQQQQQQQQEQHEQHSFRRCALSRRFILHVVWLSIIQLWHYLFIGTLNSLLTKLSGGDKVEVSAYTNAFAITQFFGVLCAPWNGLLMDRLKQKYQKAAKRTGSSSEAVALCSMVPSLALTSLLSLGFALCASIPVMQLQYATFILQVVSRSFLYGCNAAFLTLAFPSEHFGKLFGLVMALSAIVSLLQFPLFKVSPESNAVYVSMGLAIFLTLVHPFLVYRECRAEKTKSSVDA
For the molecule B4, in data set [2] (other: L1210, 2 seconds), the Km stood at 272 ± 91 µM.
